One block for each compound: values may come before it.
Key:
Rabbit Eyes = experiment: Intraocular pressure reduction in rabbit eyes after topical ocular dosing; type: in vivo;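 further: mean IOP reduction per time point from 7-8 rabbits per group, drug-treated groups alongside vehicle-treated control groups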
[1] = test system: Ocular Hypertensive Monkey Eyes; experiment: Intraocular pressure reduction in conscious ocular hypertensive cynomolgus monkey eyes after topical ocular dosing; type: in vivo;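 further: mean of 8 drug-treated monkeys per time point, IOP change expressed against a vehicle-dosed control group of 5 monkeys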
[2] = target: T1, Human Recombinant ROCK II Enzyme (Homo sapiens, UniProt O75116); experiment: High throughput human recombinant ROCK II enzyme inhibition assay (γ-33P-ATP, Long S6 substrate peptide, filter mat); type: biochemical; settings: mean ± SEM; for Hill Coefficient (nH): Hill coefficient of the inhibition plots; for IC50: recombinant human ROCK II (aa 11-552), 100 μM ATP, 30 min at 30° C., read-out: Inhibition Constant (IC50)
T1 construct: purchased Upstate USA, Inc., Lake Placid, N.Y. 14-451
T1 sequence (O75116 11-552): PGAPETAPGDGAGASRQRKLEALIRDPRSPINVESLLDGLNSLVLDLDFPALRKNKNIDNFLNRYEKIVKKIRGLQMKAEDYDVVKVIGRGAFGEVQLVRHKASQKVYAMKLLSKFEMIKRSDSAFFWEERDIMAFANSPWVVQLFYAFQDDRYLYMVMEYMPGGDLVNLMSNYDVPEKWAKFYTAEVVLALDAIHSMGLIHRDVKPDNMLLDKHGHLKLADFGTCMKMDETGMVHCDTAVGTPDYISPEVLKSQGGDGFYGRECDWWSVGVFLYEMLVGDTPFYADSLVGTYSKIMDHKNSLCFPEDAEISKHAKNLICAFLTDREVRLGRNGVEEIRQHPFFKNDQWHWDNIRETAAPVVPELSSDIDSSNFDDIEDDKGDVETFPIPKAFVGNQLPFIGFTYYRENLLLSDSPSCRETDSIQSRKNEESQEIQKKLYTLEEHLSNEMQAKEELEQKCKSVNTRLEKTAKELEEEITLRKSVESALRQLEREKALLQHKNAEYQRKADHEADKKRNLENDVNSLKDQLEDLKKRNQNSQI
Description: The enzyme assays are performed using a Biomek 2000 Robotic Workstation (Beckman Instruments, Palo Alto, Calif.) in a 96-well format using γ-^33P-ATP (Perkin-Elmer Life Sciences, Boston, Mass.). Stock γ-^33P-ATP (3000 Ci/mmol) is diluted to 1 μCi/μl with the MgCl2/ATP cocktail solution. The concentrations of MgCl2/ATP used are 15 mM and 100 μM, respectively. […] The unutilized [γ-^33P]-ATP and other residual reagents are thereby eliminated from the filter mat but the radioactive phosphorylated peptide product is retained on the filter mat for quantification. The automated washing of the filter mat thereby enhances the signal-to-noise ratio of the assay thus rendering it into a sensitive assay. The filter mats bearing the captured radioactive phosphorylated product are then dried in a microwave oven for 15 sec, placed in special sample cellophane bag (Wallac Inc., Turku, Finland) designed for these filter mats and covered with 20 ml of Betaplate scintillation fluid (Perkin-Elmer Inc., Boston, Mass.). The bags are then sealed using a heat sealer device (Wallac Inc., Turku, Finland) and a roller used to evenly spread the scintillation fluid over the whole of the filter mat.
In a further embodiment of the present invention, the dried filter mat can be covered with a solid scintillant (MELTILEX®; Wallac Inc., Turku, Finland) that is melted directly onto the filter mat using a MELTILEX® heat sealer (Wallac Inc., Turku, Finland), a device designed for this purpose. The coated filter mat is then placed in a sample cellophane bag (Wallac Inc., Turku, Finland) designed for these filter mats that is then sealed and the radioactivity determined as described above. The solid scintillant assists in avoiding the spread of radioactivity from sample to sample on the dried filter mat and thus minimizes variation of the data. A solid scintillant also eliminates waste disposal of liquid scintillation fluid.
The raw data from the filter mats are then automatically sent electronically to a computer for semi-automated analyses using algorithms and a suite of programs (XLFITT computer program; IDBS corporation, Emeryville, Calif.) that perform non-linear, iterative, sigmoidal-fit analyses of the raw data.

[3] = topical ocular dose 500 μg, 1 Hour Post Dosing
[4] = topical ocular dose 500 μg, 2 Hours Post Dosing
[5] = topical ocular dose 500 μg, 3 Hours Post Dosing
[6] = topical ocular dose 500 μg, 4 Hours Post Dosing
[7] = topical ocular dose 1 mg, 1 Hour Post Dosing
[8] = topical ocular dose 1 mg, 3 Hours Post Dosing
[9] = topical ocular dose 300 μg, 1 Hour Post Dosing
[10] = topical ocular dose 300 μg, 3 Hours Post Dosing
[11] = topical ocular dose 300 μg, 6 Hours Post Dosing
[12] = topical ocular dose 1 mg, 6 Hours Post Dosing
[13] = topical ocular dose 300 μg, 2 Hours Post Dosing
[14] = topical ocular dose 300 μg, 4 Hours Post Dosing
[15] = topical ocular dose 500 μg, 6 Hours Post Dosing

SMILES: Cc1cncc2cccc(S(=O)(=O)N3CCCNCC3C)c12 (stereo not drawn) [A, HMN-1152]
% Max. IOP Reduction in Rabbit Eyes (Rabbit Eyes; [3]): 34%
% Max. IOP Reduction in Rabbit Eyes (Rabbit Eyes; [4]): 34%
% Max. IOP Reduction in Rabbit Eyes (Rabbit Eyes; [5]): 27%
% Max. IOP Reduction in Rabbit Eyes (Rabbit Eyes; [6]): 19%
% Max. IOP Reduction in Rabbit Eyes (Rabbit Eyes; [7]): 29%
% Max. IOP Reduction in Rabbit Eyes (Rabbit Eyes; topical ocular dose 1 mg, 2 Hours Post Dosing): 35%
% Max. IOP Reduction in Rabbit Eyes (Rabbit Eyes; [8]): 32%
% Max. IOP Reduction in Rabbit Eyes (Rabbit Eyes; topical ocular dose 1 mg, 4 Hours Post Dosing): 24%
% Max. IOP Reduction in Ocular Hypertensive Monkey Eyes ([1]; topical ocular dose 100 μg, 1 Hour Post Dosing): 28%
% Max. IOP Reduction in Ocular Hypertensive Monkey Eyes ([1]; topical ocular dose 100 μg, 3 Hours Post Dosing): 25%
% Max. IOP Reduction in Ocular Hypertensive Monkey Eyes ([1]; topical ocular dose 100 μg, 6 Hours Post Dosing): 19%
% Max. IOP Reduction in Ocular Hypertensive Monkey Eyes [1, 9]: 29%
% Max. IOP Reduction in Ocular Hypertensive Monkey Eyes [1, 10]: 30%
% Max. IOP Reduction in Ocular Hypertensive Monkey Eyes [1, 11]: 21%
% Max. IOP Reduction in Ocular Hypertensive Monkey Eyes [1, 7]: 42%
% Max. IOP Reduction in Ocular Hypertensive Monkey Eyes [1, 8]: 51%
% Max. IOP Reduction in Ocular Hypertensive Monkey Eyes [1, 12]: 36%

SMILES: Cc1cncc2c1=C(S(=O)(=O)N1CCCN(C)CC1C)CCC=2 (stereo not drawn) [B]
Hill Coefficient (nH) [2]: 0.6 ± 0.2
IC50 [2]: 0.485 ± 0.207 µM

SMILES: O=S(=O)(c1cccc2cnccc12)N1CCCNCC1 [D, Fasudil, Fasudil]
% Max. IOP Reduction in Rabbit Eyes (Rabbit Eyes; [9]): 17%
% Max. IOP Reduction in Rabbit Eyes (Rabbit Eyes; [13]): 29%
% Max. IOP Reduction in Rabbit Eyes (Rabbit Eyes; [10]): 26%
% Max. IOP Reduction in Rabbit Eyes (Rabbit Eyes; [14]): 20%
% Max. IOP Reduction in Rabbit Eyes (Rabbit Eyes; [3]): 25%
% Max. IOP Reduction in Rabbit Eyes (Rabbit Eyes; [4]): 33%
% Max. IOP Reduction in Rabbit Eyes (Rabbit Eyes; [5]): 25%
% Max. IOP Reduction in Rabbit Eyes (Rabbit Eyes; [6]): 17%
% Max. IOP Reduction in Ocular Hypertensive Monkey Eyes [1, 3]: 33%
% Max. IOP Reduction in Ocular Hypertensive Monkey Eyes [1, 5]: 28%
% Max. IOP Reduction in Ocular Hypertensive Monkey Eyes [1, 15]: 16%

SMILES: Cc1cncc2cccc(S(=O)(=O)N3CCNC(C)C3)c12 (stereo not drawn) [F]
Hill Coefficient (nH) [2]: 0.94 ± 0.11
% Max. IOP Reduction in Ocular Hypertensive Monkey Eyes [1, 3]: 23%
% Max. IOP Reduction in Ocular Hypertensive Monkey Eyes [1, 5]: 20%
% Max. IOP Reduction in Ocular Hypertensive Monkey Eyes [1, 15]: 20%

SMILES: CC(N)[C@H]1CC[C@H](C(=O)Nc2ccccc2)CC1 (stereo partly drawn) [G, Y-27632]
% Max. IOP Reduction in Rabbit Eyes (Rabbit Eyes; topical ocular dose 2 mg, 1 Hour Post Dosing): 26%
% Max. IOP Reduction in Rabbit Eyes (Rabbit Eyes; topical ocular dose 2 mg, 2 Hours Post Dosing): 28%
% Max. IOP Reduction in Rabbit Eyes (Rabbit Eyes; topical ocular dose 2 mg, 3 Hours Post Dosing): 29%
% Max. IOP Reduction in Rabbit Eyes (Rabbit Eyes; topical ocular dose 2 mg, 4 Hours Post Dosing): 27%
% Max. IOP Reduction in Ocular Hypertensive Monkey Eyes [1, 9]: 15%
% Max. IOP Reduction in Ocular Hypertensive Monkey Eyes [1, 10]: 14%
% Max. IOP Reduction in Ocular Hypertensive Monkey Eyes [1, 11]: 8%
% Max. IOP Reduction in Ocular Hypertensive Monkey Eyes [1, 7]: 24%
% Max. IOP Reduction in Ocular Hypertensive Monkey Eyes [1, 8]: 36%
% Max. IOP Reduction in Ocular Hypertensive Monkey Eyes [1, 12]: 32%

SMILES: Cc1cncc2cccc(S(=O)(=O)N3CCCN(C)C(C)C3)c12 (stereo not drawn) [H]
Hill Coefficient (nH) [2]: 0.95 ± 0.16

Continued, in another order:

Hill Coefficient (nH) [2]: 0.99 ± 0.13
SMILES: CC1CNCCN1S(=O)(=O)c1cccc2cnccc12 (stereo not drawn) [E, H-7]
% Max. IOP Reduction in Rabbit Eyes (Rabbit Eyes; [3]): 19%
% Max. IOP Reduction in Rabbit Eyes (Rabbit Eyes; [4]): 11%
% Max. IOP Reduction in Rabbit Eyes (Rabbit Eyes; [5]): 0%
% Max. IOP Reduction in Rabbit Eyes (Rabbit Eyes; [6]): 6%
% Max. IOP Reduction in Ocular Hypertensive Monkey Eyes [1, 7]: 31%
% Max. IOP Reduction in Ocular Hypertensive Monkey Eyes [1, 8]: 21%
% Max. IOP Reduction in Ocular Hypertensive Monkey Eyes [1, 12]: 12%

Hill Coefficient (nH) [2]: 0.91 ± 0.28
SMILES: CC1CN(S(=O)(=O)c2cccc3cnccc23)CCN1 (stereo not drawn) [I, HA-135]
% Max. IOP Reduction in Ocular Hypertensive Monkey Eyes [1, 3]: 19%
% Max. IOP Reduction in Ocular Hypertensive Monkey Eyes [1, 5]: 15%
% Max. IOP Reduction in Ocular Hypertensive Monkey Eyes [1, 15]: 1%

Hill Coefficient (nH) [2]: 0.9 ± 0.3
IC50 [2]: 12 µM
SMILES: O=S(=O)(c1cccc2c(Cl)cccc12)N1CCCNCC1 [J, ML-9]
% Max. IOP Reduction in Rabbit Eyes (Rabbit Eyes; [9]): 8%
% Max. IOP Reduction in Rabbit Eyes (Rabbit Eyes; [13]): 23%
% Max. IOP Reduction in Rabbit Eyes (Rabbit Eyes; [10]): 0.4%
% Max. IOP Reduction in Rabbit Eyes (Rabbit Eyes; [14]): 6%
% Max. IOP Reduction in Ocular Hypertensive Monkey Eyes [1, 9]: 7%
% Max. IOP Reduction in Ocular Hypertensive Monkey Eyes [1, 10]: 6%
% Max. IOP Reduction in Ocular Hypertensive Monkey Eyes [1, 11]: 5%
